# Tested on: Plasmodium falciparum
# Assay: Antiplasmodial activity against Plasmodium falciparum 3D7 infected in RBC by flow cytometry analysis
# Type: functional, organism-based
row,SMILES,IC50
1,CSc1ccc(SCC2=C(O)C(=O)c3ccccc3C2=O)cc1,22.3 µM
2,O=C1C(O)=C(CSc2ccccc2)C(=O)c2ccccc21,27.1 µM
3,CCCSCC1=C(O)C(=O)c2ccccc2C1=O,31.8 µM
4,Cc1cccc(SCC2=C(O)C(=O)c3ccccc3C2=O)c1,5.4 µM
5,Cc1ccc(SCC2=C(O)C(=O)c3ccccc3C2=O)cc1,6.8 µM
6,O=C1C(O)=C(CSc2ccc(F)cc2)C(=O)c2ccccc21,7 µM
7,COc1ccc(SCC2=C(O)C(=O)c3ccccc3C2=O)cc1,9.3 µM
8,Cc1ccccc1SCC1=C(O)C(=O)c2ccccc2C1=O,9.7 µM
9,O=C1C(O)=C(CSc2ccc([N+](=O)[O-])cc2)C(=O)c2ccccc21,14.4 µM
10,O=C1C(O)=C(CSc2ccc3ccccc3c2)C(=O)c2ccccc21,14.5 µM
11,O=C1C(=O)c2ccccc2C(O)=C1CSc1ccc(Cl)cc1,20 µM
12,CSc1ccc(SC(C2=C(O)C(=O)c3ccccc3C2=O)c2ccccc2)cc1 (racemic),18.2 µM
13,CCCSC(C1=C(O)C(=O)c2ccccc2C1=O)c1ccccc1 (racemic),13.8 µM
14,Cc1ccccc1SC(C1=C(O)C(=O)c2ccccc2C1=O)c1ccccc1 (racemic),17.6 µM
15,O=C1C(O)=C([C@H]2CC[C@H](c3ccc(Cl)cc3)CC2)C(=O)c2ccccc21 [ATOVAQUONE],0.003 µM

# Other lines, results leading:
row,IC50,SMILES
1,19.9 µM,O=C1C(O)=C(C(Sc2ccc3ccccc3c2)c2ccc([N+](=O)[O-])cc2)C(=O)c2ccccc21 (racemic)
2,27 µM,Cc1ccc(SC(C2=C(O)C(=O)c3ccccc3C2=O)c2ccc([N+](=O)[O-])cc2)cc1 (racemic)
3,27.8 µM,CCCSC(C1=C(O)C(=O)c2ccccc2C1=O)c1ccc([N+](=O)[O-])cc1 (racemic)
4,34.2 µM,Cc1cccc(SC(C2=C(O)C(=O)c3ccccc3C2=O)c2ccccc2)c1 (racemic)
5,6.6 µM,Cc1ccccc1SC(C1=C(O)C(=O)c2ccccc2C1=O)c1ccc([N+](=O)[O-])cc1 (racemic)
6,7.5 µM,O=C1C(O)=C(C(Sc2ccc(O)cc2)c2ccc([N+](=O)[O-])cc2)C(=O)c2ccccc21 (racemic)
7,7.5 µM,O=C1C(O)=C(C(Sc2ccc(Cl)cc2)c2ccc([N+](=O)[O-])cc2)C(=O)c2ccccc21 (racemic)
8,10.7 µM,Cc1cccc(SC(C2=C(O)C(=O)c3ccccc3C2=O)c2ccc([N+](=O)[O-])cc2)c1 (racemic)
9,13.9 µM,O=C1C(O)=C(C(Sc2ccc([N+](=O)[O-])cc2)c2ccccc2)C(=O)c2ccccc21 (racemic)
10,14.3 µM,O=C1C(O)=C(C(Sc2ccc(F)cc2)c2ccc([N+](=O)[O-])cc2)C(=O)c2ccccc21 (racemic)
11,16.8 µM,O=C1C(O)=C(C(Sc2ccccc2)c2ccc([N+](=O)[O-])cc2)C(=O)c2ccccc21 (racemic)

# From ChEMBL document CHEMBL2311512, “Addition of thiols to o-quinone methide: new 2-hydroxy-3-phenylsulfanylmethyl[1,4]naphthoquinones and their activity against the human malaria parasite Plasmodium falciparum (3D7)” (Eur J Med Chem, 2013)
